Measured values: US20260007687A1, “A[…] EMULSION INJECTION AND METHOD FOR PREPARING SAME” (JIANGSU NHWA PHARMACEUTICAL CO., LTD, priority 2022, published 2026)

Columns and labels:
[1] = background statement; cited from earlier work
[2] = ED50 of alphaxalone (basis of the dose in the histamine test); details: in vivo
[3] = system: histamine content in mouse plasma; assay: Mouse histamine release: plasma histamine content (ELISA) 30 min after intravenous injection; details: mice
Method: Overall test method: the corresponding solution or formulation was prepared. Administration was performed by intravenous injection, and blood was collected 30 min after administration. After anticoagulation with EDTA, the blood was centrifuged to collect the plasma, and the histamine content in mouse plasma was measured with an ELISA kit.
Blank plasma: blood was directly collected from mice and centrifuged.
Normal saline: normal saline was injected at an administration volume of 5 mL/kg.
Blank fat emulsion (20% medium-long-chain fat emulsion): the administration volume was 5 mL/kg.
SBE-β-CD: the preparation method was: 0.7 mL of 13% SBE-β-CD+4.3 mL of normal saline, and the administration volume was 5 mL/kg. […] Cremophor EL: 0.7 mL of Cremophor EL+4.3 mL of normal saline, the concentration of Cremophor EL was 0.14 mL/mL, the dose was 5 mL/kg, and the dose of Cremophor EL was 0.7 mL/kg.
SBE-β-CD & Cremophor EL: 0.7 mL of 13% SBE-β-CD+0.7 mL of Cremophor EL+3.6 mL of normal saline, and the administration volume was 5 mL/kg.
The administration volume was 3.5 mL/kg, the dose was 7 mg/kg; the administration amount of castor oil was 0.245 mL/kg.

C[C@]12CC[C@@H](O)C[C@@H]1CC[C@H]1[C@@H]3CC[C@H](C(=O)CO)[C@@]3(C)CC(=O)[C@@H]12 [alphadolone]
potency of alphadolone relative to alphaxalone [1]: half

CC(=O)[C@H]1CC[C@H]2[C@@H]3CC[C@H]4C[C@H](O)CC[C@]4(C)[C@H]3C(=O)C[C@]12C [alphaxalone]
ED50 of alphaxalone [2]: about 3.5 mg/kg

sulfobutyl-β-cyclodextrin [SBE-β-CD]
Plasma histamine concentration [3]: 15.28 ± 2.33 ng/mL
